In PMC12218520, “Oxyresveratrol suppressed melanogenesis, dendrite formation, and melanosome transport in melanocytes via regulation of the MC1R/cAMP/MITF pathway” (Scientific Reports, 2025):
Read-outs that look alike come from different tables or passages of the source.

How the values were obtained:
human tyrosinase [1] = molecular target: T1, human tyrosinase (Homo sapiens, UniProt P14679); assay: substrate of the tyrosinase assay ([…]), absorbance at […] nm; format: biochemical
T1 construct: gene TYR; recombinant human tyrosinase (OriGene TP321797L)
T1 sequence (P14679 19-529): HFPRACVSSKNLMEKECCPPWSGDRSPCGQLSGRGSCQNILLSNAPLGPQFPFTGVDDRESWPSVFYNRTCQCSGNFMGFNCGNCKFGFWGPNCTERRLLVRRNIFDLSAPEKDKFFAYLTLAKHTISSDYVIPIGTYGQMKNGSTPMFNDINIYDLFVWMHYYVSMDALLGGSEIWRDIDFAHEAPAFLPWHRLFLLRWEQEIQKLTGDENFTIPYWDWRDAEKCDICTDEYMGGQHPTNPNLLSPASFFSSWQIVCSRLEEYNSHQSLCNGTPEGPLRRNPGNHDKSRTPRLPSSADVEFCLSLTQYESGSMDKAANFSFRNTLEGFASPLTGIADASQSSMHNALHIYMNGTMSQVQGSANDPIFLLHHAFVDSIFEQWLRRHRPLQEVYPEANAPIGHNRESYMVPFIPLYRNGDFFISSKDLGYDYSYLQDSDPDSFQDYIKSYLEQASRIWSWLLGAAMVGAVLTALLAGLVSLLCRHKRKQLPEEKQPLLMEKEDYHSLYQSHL

human tyrosinase [2] = molecular target: T1, human tyrosinase; assay: L-DOPA oxidation assay with recombinant human tyrosinase, absorbance at […] nm; format: biochemical

N[C@@H](Cc1ccc(O)c(O)c1)C(=O)O [L-DOPA]
substrate of the tyrosinase assay (0.5 mM), absorbance at 492 nm (human tyrosinase [1]): Inhibition of human tyrosinase activity by oxyresveratrol, resveratrol, phenylethyl resorcinol, and glabridin in vitro, using L-DOPA as substrate.

Oc1ccc(/C=C/c2cc(O)cc(O)c2)cc1 [compound 2, Resveratrol]
IC50 (human tyrosinase [2]): 57.2 µM

CC(c1ccccc1)c1ccc(O)cc1O (stereo not drawn) [compound 3, Phenylethyl resorcinol]
IC50 (human tyrosinase [2]; read-out: IC50 (μg/mL) (converted)): 88.5 µM
